Measured values reported in patent US8420574B2, “Plant growth enhancement with combinations of PESA and herbicides” (Valent BioSciences Corporation, priority 2009, dated 2013).

Key:
rice cv. Cheniere [1] = assay: Pouch assay, PESA salt and herbicide added to the pouch solution; root and shoot length; format: in vivo; settings: for Shoot Length / Root Length: 0 ppm PESA salt; for Shoot Length: untreated 3.2; for Root Length: untreated 9.2
Procedure: Alternatively, PESA salt and herbicides may be added separately to the sterile water in the growth pouch.
(§1) Seeds were placed in germination pouches consisting of germination paper hydrated with sterile water that was an insert in a gas-permeable 16×14 cm plastic pouch (CYG Pouch; Mega International, St. Paul, Minn.). In these examples, in pouch solution evaluation, PESA sodium salt or other active ingredients were added to the sterile water in the pouch. The pouches were arranged in a completely randomized block design in growth racks and placed in 19-liter polycarbonate food storage containers (Rubbermaid Commercial Products, Winchester, Va.). The sealed containers were held in an upright growth cabinet maintained at 25 C with a 12 hour light: 12 hour dark photoperiod. After 6 days, the containers were removed from the growth cabinet, and the lengths of the roots and shoot were measured.

rice cv. Cheniere [2] = assay: Pouch assay with PESA salt seed treatment; root length; format: in vivo; settings: 0 g PESA salt/100 lbs of seed, untreated 9.8
Procedure: Procedure for Treating Samples of Seed in the Laboratory
Seed was sieved with a screen of mesh size appropriate to remove broken seeds and small trash. Cracked or otherwise damaged seeds were removed. The seed was well mixed, and 50 g samples were weighed into small plastic trays. Seed treatment slurries were made by adding measured amounts of PESA or its salts and other AIs to sufficient water to bring them up to a standard volume, typically 2 ml. A fungicide (Maxim XL; Syngenta Agricultural Products, Greensboro, N.C.), a polymeric binder (CF-Clear; Becker-Underwood, Ames, Iowa), and a colorant (Color Coat Red; Becker-Underwood, Ames, Iowa) were also included in the slurry at label rates. A small aliquot of this slurry was applied to the seed using the Hege 11 coater (Wintersteiger, Salt Lake City, Utah) with a six-inch bowl at a slurry rate of 30 ounces per 100 lbs of seed. The slurry was deposited drop-wise on the spinning disk atomizer using a syringe.
After treatment, each seed sample was placed in plastic trays and dried at a room temperature for 20 to 60 minutes. The samples were then placed in small plastic bags. Samples were spot-checked using a water activity meter to make sure the water activity is below 0.7.
as §1
Rice cv. Chemere was treated with PESA sodium salt prior to growing in the pouch. The treated seeds were then grown in the pouch in a dose-dependent series of trifluralin concentrations (Table 2). […] This confirms that seed treatment with the PESA salt protects or safens rice from the negative effects of trifluralin herbicide on root growth.

CCCN(CCC)c1c([N+](=O)[O-])cc(C(F)(F)F)cc1[N+](=O)[O-] [Trifluralin, trifluralin, reference compound]
Shoot Length (rice cv. Cheniere [1]; 1 ppm trifluralin): 3.7 cm
Root Length (rice cv. Cheniere [1]; 1 ppm trifluralin): 9.8 cm
Shoot Length (rice cv. Cheniere [1]; 10 ppm trifluralin): 3.3 cm
Root Length (rice cv. Cheniere [1]; 10 ppm trifluralin): 8.3 cm
root length reduced by (rice cv. Cheniere [1]; 100 ppm trifluralin): 90%
Shoot Length (rice cv. Cheniere [1]; 100 ppm trifluralin): 2.2 cm
Root Length (rice cv. Cheniere [1]; 100 ppm trifluralin): 0.9 cm
Root Length (rice cv. Cheniere [2]; 50 ppm trifluralin): 0.9 cm
Root Length (rice cv. Cheniere [2]; 100 ppm trifluralin): 0.1 cm
